# Experiment: Human HepG2 cell viability assay in 384 well format
# Type: toxicity, cell-based
# Set-up: dose 125 nL, time 70.5 hour; concentration not given beside the values
# Settings: HepG2 cells, read-out: Inhibition
row,SMILES,cytotoxicity at 70.5 h [%]
1,CN(Cc1ccco1)C1CCC12CCN(C(=O)C1CCOCC1)CC2 (stereo unspecified),-3.65
2,CNC(=O)CN1CCCC1c1ccccc1Br (stereo unspecified),-6.18
3,CCC(CC)(CNC(=O)OC(C)(C)C)NC(=O)C1CC1,16.7
4,CN(C)CC(=O)N1CCCC1c1cncc(Oc2ccc(F)cc2)n1 (stereo unspecified),11.5
5,CCOCCC(=O)N(C)CC1Cc2ccccc2CN1C (stereo unspecified),-0.994
6,Cn1cc(CN2CCC(c3cc(CCO)[nH]n3)C2)cn1 (stereo unspecified),-8.16
7,c1cnn(C2CN(CCCOc3ccc4c(c3)OCO4)C2)c1,11.1
8,CC(C)n1cnnc1CN(C)Cc1ccc(CN(C)S(C)(=O)=O)o1,-2.72
9,O=C(N1CCCC1)N1CCC[C@]2(C[C@@H](OCc3ccncc3)CO2)C1,-10.6
10,CCN1CCC(N2CCC(C(=O)N(C)C)CC2)CC1,-5.59
11,Oc1cc(-c2ccccn2)nc(C2CCN(Cc3ccncc3)CC2)n1,16.5
12,O=C(O)CCc1cc2n(n1)CCCN(C(=O)c1ccc3cc[nH]c3c1)C2,-14
13,O=C(NCc1cnc2n1CCN(Cc1ccsc1)CC2)C1CCC1,-10.8
14,CSCC(=O)N1CCOC(c2nc(C(C)C)n[nH]2)C1 (stereo unspecified),-7.67
15,CCn1c(C)nnc1CN(C)C1CCN(CCCSC)C1 (stereo unspecified),26.5
16,Cc1nc(CN(Cc2ccccc2)C2CCS(=O)(=O)C2)oc1C (stereo unspecified),-0.994
17,CN(C)C(=O)NCc1cc2n(n1)CCCN(CC1CCCNC1)C2 (stereo unspecified),29.9
18,CCc1nc(C2CCCN2CCCSC)no1 (stereo unspecified),-4.43
19,CCOCC(=O)N1CCCC2(CCN(c3ccccc3)C2=O)C1 (stereo unspecified),-8.08
20,Cn1cccc1C(=O)N1CC[C@H]2C[C@@H](c3ccncn3)O[C@@H]2C1,-9.87
21,CN(C)C[C@H]1OC[C@@H]2CCN(S(=O)(=O)c3ccccc3)C[C@@H]21,22.9
22,Cn1ccnc1CN1CCC2(CC1)COCCN(S(C)(=O)=O)C2,-7.67
23,Cc1nc(-c2ccccc2)n(CC(=O)N(C(C)C)C(C)C)n1,2.39

row,SMILES,cytotoxicity at 70.5 h [%]
1,CC(Oc1ccc(F)cc1F)C(=O)N1CCC2(CC1)CC(=O)N(C)C2 (stereo unspecified),27.3
2,O=C(NCc1cccc(F)c1)Nc1ccn(CCN2CCOCC2)n1,-4.92
3,Cc1cccc(N2CCN(C(=O)c3c(C)nn(C)c3C)CC2)c1C,-0.882
4,O=C(CSC1CCc2ccccc2NC1=O)NCCc1ccco1 (stereo unspecified),7.74
5,Cc1nccn1CCC(=O)N1CCCN(c2ccccc2)CC1,-6.92
6,CCn1c(C)nnc1CN(C)C1CCN(Cc2nnc(C3CC3)o2)C1 (stereo unspecified),2.54
7,CC(=O)N1CCN(C(=O)C(C)Nc2ccc3ncsc3c2)CC1 (stereo unspecified),0.285
8,CCS(=O)(=O)N1CCN(C)c2ncccc2C1,-7.16
9,NC(=O)C1CCN(Cn2nc(-c3ccc(F)cc3)oc2=O)C1 (stereo unspecified),-7.79
10,O=S(=O)(Cc1cc(-c2ccccc2)no1)CC1CCCO1 (stereo unspecified),-8.25
11,CN(C)CCN1C(=O)CCC12CCN(C(=O)CC1CC1)CC2,-6.33
12,CCOc1cc(C(=O)NS(=O)(=O)c2cccc(C#N)c2)ccc1OC,-10
13,Cc1nc(-c2ccc(NCCc3ccc(O)cc3)nc2)[nH]c(=O)c1C,3.42
14,COc1cc(CNC(=O)Nc2nnc(C(F)(F)F)s2)ccc1O,2.56
15,Cc1ccc(SC2CCCC2)c(C(=O)NCCc2n[nH]c(=O)[nH]2)c1,2.84
16,CN(C)c1ccc(C(=O)N2CCN(c3cnccn3)CC2)cn1,-17.1
17,CC(C)(C)CNC(=O)CNC(=O)C1CC1,0.566
18,CN1[C@H](CN2CCCC2)C[C@@H]2CN(C(=O)c3ccsc3)CC[C@@H]21,11.2
19,COCCNc1nc(-c2ccc(S(=O)(=O)N3CCCCCC3)cc2)cs1,-5.83
20,COc1ccc(CNC(C)c2cccc(Cl)c2)c(OC)c1OC (stereo unspecified),-0.149
21,CN1CCN(C)C2(CCN(Cc3ccc(C4CCCCO4)o3)CC2)C1 (stereo unspecified),-1.75
22,COCC(=O)N1CCC2(CCC2NS(=O)(=O)c2ccccc2)CC1 (stereo unspecified),28.8
23,CCc1nccn1C1CCCN(C(=O)c2ccc3[nH]nnc3c2)C1 (stereo unspecified),-8.95

row,SMILES,cytotoxicity at 70.5 h [%]
1,CC(C)CCN(c1cn[nH]c1)S(=O)(=O)c1cccc(C#N)c1,18.2
2,COc1ccc(Cl)cc1S(=O)(=O)N(C)CC(=O)Nc1ccon1,-12
3,O=C(Nc1ccccc1)[C@H]1O[C@H](CCN2CCCCC2)CC[C@@H]1O,-3.54
4,CC(C)(C)c1cn2nc(N3CCCC3Cn3cncn3)sc2n1 (stereo unspecified),-10.8
5,CCOc1cc(C)nc(N2CCN(C(=O)c3csnn3)CC2)n1,-12.5
6,CSCc1noc(CNC(=O)C2CCN(C(=O)C3CC3)CC2)n1,-17.4
7,O=C(CCN1CCCCO1)N1CC[C@H](O)[C@@H](O)C1,11.6
8,O=C(NCCNc1ncccn1)Nc1cc(C(F)(F)F)c[nH]c1=O,-3.37
9,O=C1CCC2(CCCN(C(=O)c3ccc[nH]3)C2)CN1CCc1c[nH]cn1 (stereo unspecified),16.9
10,O=C(Nc1ccccc1)N1CCn2c(nnc2C2CCNCC2)C1,-9.29
11,NC(=O)N1CCCN(CC(=O)NCCc2c(F)cccc2F)CC1,-6.21
12,CCc1nn(C)c(Cl)c1CN1CCC(c2cc(O)nc(C)n2)CC1,-10.5
13,COc1ccc(CN(C(=O)C(C)C)c2cnn(C)c2)c(OC)c1,-1.23
14,COCCC(=O)N1CCc2cc(Cl)cc(Cl)c2C1,-2.57
15,CCN(CC(=O)N(C)C)S(=O)(=O)c1cnc2c(c1)c(C)nn2C,-17.2
16,CC(C)(C)NC(=O)Cn1cc(C(N)=O)c(-c2ccccc2)n1,-3.41
17,c1cnc2nc(C3CCNCC3)[nH]c2c1,-11.9
18,CS(=O)(=O)CCC(=O)NC(c1ccc(F)cc1)C(F)(F)F (stereo unspecified),-1.59
19,CC1=N[C@@]2(CC[C@@H]3CN(S(=O)(=O)CC(C)C)C[C@@H]32)C(=O)N1CC(C)C,-5.23
20,Cc1ccccc1-c1cncc(C2CCN(Cc3cnn(C)c3)CC2)n1,-9.46
21,Cc1nn(C)c(C)c1CCC(=O)N1CCCC(n2cncn2)C1 (stereo unspecified),-6.31
22,Cc1ccc(OCCCNC(=O)C(C)Sc2nncn2C)cc1 (stereo unspecified),-12.1
23,CC(C)n1cnc2c(N3CCCC3)nc(C3CCNCC3)cc21,5.44

row,SMILES,cytotoxicity at 70.5 h [%]
1,Cc1cccc(C)c1NC(=O)c1cccc(N(C)S(C)(=O)=O)c1C,-14.1
2,COc1cc(Cl)c(CN2CCC(C(N)=O)C2)cc1Cl (stereo unspecified),4.93
3,CS(=O)(=O)N1CCC(c2nnc3ccc(C(=O)N4CCCC4)cn23)C1 (stereo unspecified),-5.09
4,Cc1nc(C2CCCN2C(=O)CNS(C)(=O)=O)no1 (stereo unspecified),-13.3
5,CNc1cncc(C2CCCN2C(=O)c2ccc3oc(C)cc3c2)n1 (stereo unspecified),-8.56
6,COc1nccnc1N1CCC(C(=O)O)(n2ccc(C(C)(C)C)n2)CC1,-10.8
7,COc1cc(C)nc(N2CCN(C(=O)COCC3CC3)CC2)n1,-3.61
8,CC(=O)c1cc(CC(=O)NCc2ccc(F)cc2)cs1,-1.82
9,COCCC1(CNC(=O)NCC2CCCS2)CCCC1 (stereo unspecified),-3.7
10,CCOc1cccc(NS(=O)(=O)c2cc(C(=O)O)cs2)c1,-11.8
11,Cn1c(C(N)=O)cc2c1CN(C(=O)C1CC(=O)N(C(C)(C)C)C1)CC2 (stereo unspecified),-2.03
12,Cc1cccc(N(CC(=O)N2CCCCC2)C(=O)C2CCCO2)c1 (stereo unspecified),2.3
13,Cc1ccc(CN(C)C(=O)c2cc(Cn3ccnc3C(C)C)[nH]n2)o1,3.51
14,O=C(C1CCC1)N1C[C@@H](c2ccsc2)[C@@H]2CN(C3CCCC3)CC[C@@H]21,-3.74
15,CCCOc1cc(Cl)c(CN2CCNC(C(=O)NC3CC3)C2)cc1OC (stereo unspecified),-10.6
16,CC(=O)N1CCO[C@@H]2CN(S(=O)(=O)c3ccccc3F)C[C@@H]2C1,-10.2
17,NCc1ccc(Oc2cccc(Cl)c2Cl)nc1,6.23
18,Cc1nn(C)cc1C(=O)N1C[C@H]2CC[C@@H]1CN(S(=O)(=O)N(C)C)C2,-4.81
19,CCCC(C)C(=O)N1CCC(n2cccc2C(=O)OC)CC1 (stereo unspecified),-2.08
20,COC(C)C(=O)NS(=O)(=O)c1cccc2cc(C)cnc12 (stereo unspecified),-2.88
21,COCCN1CCN(C(=O)c2ccc(C)cc2F)[C@H]2CS(=O)(=O)C[C@H]21,-8.53
22,COC[C@]1(O)CCN(C(=O)c2ccc(CN(C)C)o2)CC1(C)C,-12.5
23,COc1ccc(-c2ccc(C(=O)NCCCC(N)=O)c(F)c2)c(F)c1,-3.05

row,SMILES,cytotoxicity at 70.5 h [%]
1,COc1ccccc1N1CCC(CNC(=O)CN2CSCC2=O)C1 (stereo unspecified),-7.92
2,COc1cccc(C(=O)Nc2ccc(OCCC(N)=O)cc2)c1OC,-5.04
3,CCCn1cc(S(=O)(=O)N(C)Cc2nonc2C)c(C)n1,-3.71
4,COCCN1CCC1c1cc(N)nc(C)n1 (stereo unspecified),-2.65
5,CCOc1cc(CNC(=O)c2cc(-c3ccccn3)no2)ccn1,-6.7
6,CSC(C)Cc1c(-c2ccccc2)ncn1CCCNc1cccnc1 (stereo unspecified),-0.408
7,Cc1ccc(S(=O)(=O)N2CCN(C)c3ccncc32)cc1F,-4.45
8,NC(=O)c1ccc(S(=O)(=O)NC(=O)COc2ccc3c(c2)CCC3)cc1,-6.16
9,Cn1ccc(CS(=O)(=O)Cc2cccc(F)c2)cc1=O,-11
10,Cn1c(C2CCCN2C(=O)CN2CCCC2=O)nc2ccccc21 (stereo unspecified),-3.63
11,Cc1ncc(C(=O)NC2CCc3nccn3C2)c(C(C)C)n1 (stereo unspecified),-3.83
12,CN1CC[C@H](c2nnc(Cc3c[nH]c4ccccc34)o2)C1,-1.52
13,CC1COc2ccccc2N1C(=O)c1ccnc(-n2cncn2)c1 (stereo unspecified),9.86
14,Cc1ccc(-c2nc(C(=O)NCC3CCOC3)cs2)cc1 (stereo unspecified),-15.2
15,Cc1nnc(N2C[C@@H](OCCCn3cccn3)[C@H]3OCCC[C@H]32)s1,-9.45
16,CCc1nc(CN2CCCN(C(=O)CC(F)(F)F)CC2)cs1,1.28
17,Fc1ccc(OCC2CCCO2)c(NCc2cn3cccnc3n2)c1 (stereo unspecified),8.09
18,Cc1cccc(CN2CC[C@H]3OCC[C@@]3(C(=O)N3CCOCC3)C2)n1,-4.06
19,CN1CCN(Cc2cn3c(n2)CN(C(=O)c2ccco2)CC3)CC1,1.76
